# Assay results published in patent EP4711377A1, “STEROID COMPOUND, PREPARATION METHOD THEREFOR, AND USE THEREOF” (Shujing Biopharma Co., Ltd, priority 2023, dated 2024).
# Experiments:
# C57 mice [1] = assay: forced swimming test in mice; assay type: in vivo; settings: 3 mg/kg p.o.; for immobility time during minutes 2-6, Mean value: one hour after the administration
# Text: (§1) The core manifestations of depression are despair, helplessness, and anhedonia. The forced swimming test is commonly used to evaluate despair-like behavior. In this test, the animal is placed in an unpleasant and inescapable environment (a water tank). […] Anhedonia means a loss of interest in things that were once pleasurable; in rodents, it is typically manifested as a reduced preference for sweet foods (sucrose). Therefore, the in vivo efficacy of the compounds of the examples of the present disclosure in mice can be evaluated by forced swimming and sucrose preference tests.
# (§2) Female/male C57 mice, purchased from SPF (Suzhou) Biotechnology Co., Ltd.
# (§3) Note: ①Vehicle: 5% of DMSO + 5% of HS-15 + 90% of 20% hydroxypropyl-β-cyclodextrin (10 mL/kg, p.o.).
# Forced swimming: Animals were divided into a control group and various test drug administration dose groups, which were subjected to vehicle and test drug administration, respectively. One hour after the administration, the animals were placed in a 25 °C plexiglass cylinder with a water depth of 20 cm. The swimming status of the animals in the water was recorded by video, and the immobility time of the animals (characterized by floating in the water and stopping struggling) during minutes 2-6 was recorded and analyzed.
# (§4) Experimental data were expressed as χ ± SEM. One-way analysis of variance was employed, and pairwise comparisons were performed using Dunnett's multiple comparisons tests. The floating immobility time, swimming time, and struggling time were recorded.
# [2] = system: mice with PTZ-induced convulsions; assay: in vivo efficacy experiment in PTZ-induced epilepsy mouse model; design: species or system C57 mice; settings: for Survival rate: 60 min before PTZ 120 mg/kg s.c., 30 min observation; for Number of clonic seizures / Number of tonic seizures / Clonic seizure latency period / Tonic seizure latency period: Mean ± SEM; for Clonic seizure latency period / Tonic seizure latency period: no seizure in 30 min recorded as 1800 s; for protective effects against acute epileptic seizures: conclusion in words
# Experimental: Male C57 mice, purchased from SPF (Suzhou) Biotechnology Co., Ltd.
# PTZ: a 120 mg/kg PTZ solution (administration volume: 10 mL/kg) was prepared with normal saline as the solvent.
# Test compounds: solutions of the test compounds at 3/1/0.3 mg/kg (administration volume: 10 mL/kg) were prepared with Vehicle in section 1.4 as the solvent.
# One hour before the test, the experimental animals were transferred into an operation room for acclimation.
# The mice were randomly grouped, marked, and weighed, with 10 mice in each group. At 60 min before PTZ administration, the test compounds and Vehicle were separately orally administered.
# The PTZ solution was administered subcutaneously before experimental observation, and this time point was recorded as the observation starting point.
# Immediately after PTZ administration, the animals were placed in observation boxes and observed for 30 min. The following observations of the animals were recorded:
# Clonic seizure: the animal has a generalized myoclonus that lasts for more than 3 s and is accompanied by falling.
# Tonic seizure: the limbs are straightened at a 90° angle to the torso.
# All metrology data were expressed as mean ± standard error of mean (Mean ± SEM), and the Prism 8.0 statistical software was used for data testing and analysis.
# C57 mice [3] = assay: sucrose preference test in mice; assay type: in vivo; settings: 3 mg/kg p.o.; for Sucrose preference degree, Mean value: mice with chronic stress, 2 h free drinking
# Text: as §1, §2, §3
# Sugar preference: D1: a 1% sucrose solution was provided on both sides; D2/3: drinking water was provided on one side, while a 1% sucrose solution was provided on the other side; D4: water and food were deprived; D5: sucrose preference degree was tested. During the test, the mice with chronic stress were subjected to administration according to the experimental groups. After the administration, pre-weighed sucrose solution and drinking water were provided on […]. The animals were allowed free access to drinking for 2 h in a dark environment, and during this period, the positions of the sucrose solution and drinking water were switched at the 1-hour mark.
# as §4
# Sucrose preference degree (%) = sucrose solution consumption/(sucrose solution consumption + purified water consumption) × 100%.
Compound,"immobility time during minutes 2-6, Mean value (C57 mice [1])",effect on immobility time compared to the blank group (C57 mice [1]; conclusion in words),Survival rate ([2]; dose 0.3 mg/kg p.o.),Survival rate ([2]; dose 1 mg/kg p.o.),Survival rate ([2]; dose 3 mg/kg p.o.),Number of clonic seizures ([2]; dose 3 mg/kg p.o.),Number of tonic seizures ([2]; dose 3 mg/kg p.o.),Clonic seizure latency period ([2]; dose 3 mg/kg p.o.),Tonic seizure latency period ([2]; dose 3 mg/kg p.o.),protective effects against acute epileptic seizures ([2]; extremely low dose (0.3 mpk)),protective effects against acute epileptic seizures ([2]; low dose (1 mpk)),"Sucrose preference degree, Mean value (C57 mice [3])",effect on sucrose preference degree compared to the blank group (C57 mice [3]; conclusion in words)
"C[C@@H]1C[C@H](C(=O)Cn2ncnn2)[C@@]2(C)CC[C@H]3[C@@H](CC[C@@H]4C[C@](C)(O)[C@@H](C)C[C@@H]43)[C@H]12 [Example 9, 1-((2S,3S,5R,8R,9R,10S,13S,14S,15R,17S)-3-Hydroxy-2,3,13,15-tetramethylhexadecahydro-1H-cyclopenta[a]phenanthren-17-yl)-2-(2H-tetrazol-2-yl)ethan-1-one]",54.68 s,significantly reduce the immobility time,10%,100%,100%,0.2±0.1,0.0±0.0,1649.7 ± 105.0 s,1800.0 ± 0.0 s,partial protective effects,significant protective effects,88.37%,significantly improve the sucrose preference degree
"C[C@H]1C[C@H]2[C@H](CC[C@@H]3[C@@H]2CC[C@]2(C)[C@@H](C(=O)Cn4ncnn4)CC[C@@H]32)C[C@]1(C)O [Example 20, 1-((2S,3S,5R,8R,9R,10S,13S,14S,17S)-3-Hydroxy-2,3,13-trimethylhexadecahydro-1H-cyclopenta[a]phenanthren-17-yl)-2-(2H-tetrazol-2-yl)ethan-1-one]",,,10%,100%,,0.0±0.0,0.0±0.0,1800.0 ± 0.0 s,1800.0 ± 0.0 s,partial protective effects,significant protective effects,,
"C[C@@]1(O)CC[C@H]2[C@H](CC[C@@H]3[C@@H]2CC[C@]2(C)[C@@H](C(=O)Cn4cc(C#N)cn4)CC[C@@H]32)C1 [Sage-217, reference compound]",56.38 s,,0%,100%,100%,0.9±0.3,0.0±0.0,1012.3 ± 181.4 s,1800.0 ± 0.0 s,,significant protective effects,84.31%,
